A word on the melting point: it is the temperature, or range, at which the solid turns liquid.

Counter-ions that a name gives are not always drawn.

In the case of `C=CCO[C@@H](C)CN1CC[C@@]2(C)c3cccc(O)c3C[C@@H]1C2(C)C` (as salt: hydrochloride), the melting point was 239 °C.

As for `C/C=C/CO[C@@H](C)CN1CC[C@@]2(C)c3cccc(O)c3C[C@@H]1C2(C)C` (as salt: hydrochloride), the melting point came out at 205 °C.

Consider `C=C(C)CO[C@@H](C)CN1CC[C@@]2(C)c3cccc(O)c3C[C@@H]1C2(C)C` (as salt: hydrochloride), for which the melting point amounted to 240 °C.

Source of the values: patent publication US6683089B2, “N-allyoxyethyl-1,2,3,4,5,6-hexahydro-2,6-methano-3-benzazocine-10-ols” (Boehringer Ingelheim Pharma GmbH & Co. KG, priority 2002, dated 2004).
